Source: article PMC4585333, “Novel Regulator of Acylated Ghrelin, CF801, Reduces Weight Gain, Rebound Feeding after a Fast, and Adiposity in Mice” (Frontiers in Endocrinology, 2015)
“Also recorded” adds a separate entry of the source.

Experiments:
[1] = test system: stomach-derived ghrelinoma (SG-1) cells; test: Cell-based ghrelin secretion assay (acyl ghrelin in medium, ELISA)
Method: Ghrelin secretion studies were performed in stomach-derived ghrelinoma (SG-1) cells, cultured as described previously ([61], [62]). Cells were plated at a density of 5 × 10^4 cells/mL/well on to 24-well plates pre-coated with poly-D-lysine (day 0). On day 2, the cells were treated with the indicated concentrations of test compound CF801, 24 h ahead of the test period and with 50 μM sodium octanoate–bovine serum albumin (BSA), 16 h ahead of the test period. On day 3, the medium was aspirated and the cells were treated with the same concentrations of CF801 in 500 μL serum-free DMEM (Life Technologies, Grand Island, NY, USA) supplemented with 5 mM glucose and 50 μM sodium octanoate–BSA. After a 6-h incubation, the medium was collected, placed on ice, and immediately centrifuged at 800 × g for 5 min. Hydrochloric acid was added to the supernatant to achieve a final concentration of 0.1 N (for stabilization of acyl ghrelin) and stored at −80°C until analysis. Assay for acyl ghrelin and total were performed using commercial ELISA kits (EMD Millipore Corporation, Billerica, MA, USA) according to the manufacturer’s instructions and read in a PowerWave XS Microplate spectrophotometer (BioTek Instruments, Inc., Winooski, VT, USA).
SG-1 cells are derived from stomach ghrelinomas induced by expression of the SV40 large T-antigen under the preproghrelin promoter. These cells retain many of the features of ghrelin cells within primary cultures of gastric mucosal cells from mice ([61]). They also show elevated expression of both preproghrelin and GOAT mRNA with high levels of acylated ghrelin synthesis and secretion ([61]). In order to test CF801’s ability to reduce acyl ghrelin secretion, we performed an in vitro cell-based assay using an SG-1 cell line as previously described ([61], [62]).
Figure 1 CF801 inhibits acyl ghrelin secretion from SG-1 cells following 24 h of incubation. […] All values are expressed as mean ± SEM. *p < 0.05, ***p < 0.001 significant difference in acyl ghrelin concentrations with CF801 treatment when compared to untreated control (n = 6 wells).

[2] = Rebound food intake after a fast; assay type: in vivo, male C57BL/6J mice
Method: In general, male C57BL/6J mice (The Jackson Laboratory, Bar Harbor, ME, USA) weighing 20–25 g were used as experimental subjects. Throughout the duration of the studies, mice were housed under standard laboratory conditions and received ad libitum access to standard laboratory mouse chow and tap water. Lights in the facility were set to go on and off at 12 h intervals with the lights going on at 7:00 a.m. In some experiments, mice also had ad libitum access to a high-fat diet containing 60% caloric content from fat (TD 06414; Harlan Teklad, Indianapolis, IN, USA) in addition to regular chow to measure dietary preferences. All procedures were approved by the Carleton University Animal Care Committee and followed the guidelines of the Canadian Council on Animal Care.
Mice (n = 16) were singly housed and given free access to water and regular chow for a 4-day baseline period. After this, mice were assigned to one of three groups: vehicle (n = 5), CF801 low dose (n = 5; 11 μmol⋅kg^−1 – LD), or CF801 high dose (n = 6; 22 μmol⋅kg^−1 – HD). These mice were injected intraperitoneally once a day for 4 days starting at 10:00 a.m. Following 4 days of treatment, animals were tested for rebound feeding after a fast. To do this, we removed the food from each cage 1 h before lights out (6:00 p.m.), and food was returned to the cage the following day 1 h after the last injection. Food intake was then monitored every hour for 4 h to determine the effects of CF801 on rebound feeding. Animals were then sacrificed by rapid decapitation to collect trunk blood and other tissues. Two samples were lost during sample collection, so the number of samples used to measure acylated ghrelin was reduced to n = 14.

For GSAFLSPEHQRK KRRQRRR-NH2 [CF801], which “acyl ghrelin secretion, 100 μM” value ([1]; 100 μM CF801, 24 h incubation, vs untreated control, n = 6 wells, p < 0.05) is on record?
Its value is “Significant decreases in secretion; also recorded: significant reductions in acyl ghrelin secretion”.

And the “acyl ghrelin secretion, 300 μM” value ([1]; 300 μM CF801, 24 h incubation, vs untreated control, n = 6 wells, p < 0.05)?
Its value is “Significant decreases in secretion; also recorded: significant reductions in acyl ghrelin secretion”.

What about the “acyl ghrelin secretion, 6-h incubation” value ([1]; 6 h incubation, p > 0.05, preliminary, data not shown, even at highest concentration of 300 μM) of the same sequence?
Its value is “No significant effects; also recorded: no effect on acyl ghrelin secretion”.

And the “food consumed during first hour of refeeding, high dose” value ([2]; 22 μmol⋅kg^−1 i.p., after fast, F(2,24) = 2.394, p < 0.05, partial eta^2 = 0.22)?
The value was “lower amount of food consumed”.

What about the “total chow consumed during 4-h food access, high dose vs saline” value ([2]; 22 μmol⋅kg^−1 i.p., HD vs saline, p < 0.01, Fisher LSD) of the same sequence?
Its value is “statistically significant”.

What about the “total chow consumed during 4-h food access, treatment effect” value ([2]; after fast, F(2,24) = 4.527, partial eta^2 = 0.411, p > 0.05 as printed) of the same sequence?
The value was “significant overall dose-dependent treatment effect”.

And the “food consumed, other time points” value ([2]; any time point of 4 h refeeding other than first hour, p > 0.05)?
The value was “No significant effects were seen at any other time point examined”.

And the “food intake or weight gain during first 3 days of treatment” value ([2]; i.p. once daily, 11 and 22 μmol⋅kg^−1, data not shown, p > 0.05)?
The value was “No effects”.
